# Measurements from ChEMBL document CHEMBL6109084 (Eur J Med Chem, 2025).
# pIC50: −log10 of the molar value. Calls of active or inactive are those of the source. The calls are words filed in the database; no cut-off is given here.
# Key:
# Plasma kallikrein = Plasma kallikrein (Homo sapiens, UniProt P03952); test: Inhibition of PKal (unknown origin) using H-D-Pro-Phe-Arg-pNA.2HCl as substrate incubated for 30 mins followed by substrate addition and measured after 60 mins by microplate reader analysis
# Coagulation factor XII = biological target: T1, Coagulation factor XII (Homo sapiens, UniProt P00748); test: Inhibition of FXIIa (unknown origin) using H-D-ProPhe-Arg-pNA.2HCl as substrate incubated for 30 mins followed by substrate addition and measured after 60 mins by microplate reader analysis
# T1 sequence (P00748 whole entry): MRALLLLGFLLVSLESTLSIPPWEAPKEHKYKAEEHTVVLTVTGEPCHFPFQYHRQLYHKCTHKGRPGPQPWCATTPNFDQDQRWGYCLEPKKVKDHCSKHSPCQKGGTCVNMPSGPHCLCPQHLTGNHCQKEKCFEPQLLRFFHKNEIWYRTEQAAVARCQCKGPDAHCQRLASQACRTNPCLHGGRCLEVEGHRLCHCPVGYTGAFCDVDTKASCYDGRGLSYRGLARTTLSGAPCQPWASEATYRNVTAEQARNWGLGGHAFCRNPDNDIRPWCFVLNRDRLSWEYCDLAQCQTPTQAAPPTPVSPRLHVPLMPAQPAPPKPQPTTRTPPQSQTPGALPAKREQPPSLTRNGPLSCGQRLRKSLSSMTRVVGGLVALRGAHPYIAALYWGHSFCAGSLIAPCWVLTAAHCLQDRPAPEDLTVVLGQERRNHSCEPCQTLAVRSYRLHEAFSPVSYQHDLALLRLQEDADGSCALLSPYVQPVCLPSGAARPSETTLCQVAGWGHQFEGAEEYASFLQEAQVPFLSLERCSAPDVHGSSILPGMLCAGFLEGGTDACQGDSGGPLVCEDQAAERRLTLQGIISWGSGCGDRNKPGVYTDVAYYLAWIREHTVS
# Mus musculus [1] = test: Antithrombotic activity in FeCl3-induced carotid arterial thrombosis C57BL/6J mouse model assessed as increase in peak velocity at 10 mg/kg, po measured after 2 to 4 hrs; type: functional, organism-based; conditions: time 2-4 hrs
# [2] = Acute toxicity in C57BL/6J mouse assessed as pathological changes in liver at 60 to 100 mg/kg, po administered as single dose for 14 days by H and E staining based analysis; type: organism-based; conditions: in vivo, 336 h, dose 60-100 mg/kg, time 14 day
# Plasma [3] = test: Anticoagulant activity in citrated human plasma assessed as prolongation of prothrombin time incubated for 3 mins by PT reagent based automated coagulometric analysis; type: functional, cell-free
# [4] = Acute toxicity in C57BL/6J mouse assessed as effect on plasma ALP level at 60 to 100 mg/kg, po measured after 24 hrs; type: organism-based; conditions: in vivo, dose 60-100 mg/kg
# Coagulation factor XI = Coagulation factor XI (Homo sapiens, UniProt P03951); test: Inhibition of human FXIa using p-Glu-Pro-Arg-pNA.HCl as substrate incubated for 30 mins followed by substrate addition and measured after 60 mins by microplate reader analysis
# [5] = Acute toxicity in C57BL/6J mouse assessed as effect on serum aspartate aminotransferase level at 60 to 100 mg/kg, po measured after 24 hrs; type: organism-based; conditions: in vivo, dose 60-100 mg/kg
# [6] = Metabolic stability in human liver microsome assessed as half life; type: ADME; conditions: liver microsomes
# Mus musculus [7] = test: Antithrombotic activity in po dosed FeCl3-induced carotid arterial thrombosis C57BL/6J mouse model assessed as increase in peak velocity measured after 0.5 hrs; type: functional, organism-based; conditions: dose 5-30 mg/kg
# [8] = Selectivity index, ratio of IC50 for inhibition of chymotrypsin (unknown origin) using N-Suc-Ala-Ala-Pro-Phe-pNA as substrate to IC50 for inhibition of human FXIa using p-Glu-Pro-Arg-pNA.HCl as substrate
# [9] = Toxicity in C57BL/6J mouse assessed as prolongation of bleeding time at 30 to 60 mg/kg, IG measured after 30 mins by tail bleeding assay; type: organism-based; conditions: in vivo, po, 0.5 h, dose 30-60 mg/kg
# [10] = Acute toxicity in C57BL/6J mouse assessed as effect on liver weight at 60 to 100 mg/kg, po measured after 24 hrs; type: organism-based; conditions: in vivo, dose 60-100 mg/kg
# [11] = Acute toxicity in C57BL/6J mouse assessed as effect on kidney weight at 60 to 100 mg/kg, po measured after 24 hrs; type: organism-based; conditions: in vivo, dose 60-100 mg/kg
# [12] = Acute toxicity in C57BL/6J mouse assessed as pathological changes in lung at 60 to 100 mg/kg, po administered as single dose for 14 days by H and E staining based analysis; type: organism-based; conditions: in vivo, 336 h, dose 60-100 mg/kg, time 14 day
# Oryctolagus cuniculus = test: Antithrombotic activity in FeCl3-induced carotid arterial thrombosis male New Zealand white rabbits model assessed as reduction in wet thrombus weight at 6 mg/kg, iv preincubated for 30 mins followed by FeCl3 application for 5 mins and measured after 30 mins relative to control; type: functional, organism-based; conditions: time 65.0 min
# [13] = Acute toxicity in C57BL/6J mouse assessed as pathological changes in kidney at 60 to 100 mg/kg, po administered as single dose for 14 days by H and E staining based analysis; type: organism-based; conditions: in vivo, 336 h, dose 60-100 mg/kg, time 14 day
# Plasminogen = Plasminogen (Homo sapiens, UniProt P00747); test: Inhibition of plasmin (unknown origin) using PyroGlu-Phe-Lys-pNA.HCl as substrate incubated for 30 mins followed by substrate addition and measured after 60 mins by microplate reader analysis
# [14] = Acute toxicity in C57BL/6J mouse assessed as effect on lung weight at 60 to 100 mg/kg, po measured after 24 hrs; type: organism-based; conditions: in vivo, dose 60-100 mg/kg
# [15] = Acute toxicity in C57BL/6J mouse assessed as effect on serum AST level at 60 to 100 mg/kg, po administered as single dose for 14 days; type: organism-based; conditions: in vivo, 336 h, dose 60-100 mg/kg, time 14 day
# Plasma [16] = test: Anticoagulant activity in mouse plasma assessed as prolongation of activated partial thromboplastin time incubated for 3 mins by aPTT reagent based automated coagulometric analysis; type: functional; conditions: 0.05 h
# [17] = Acute toxicity in C57BL/6J mouse assessed as effect on spleen weight at 60 to 100 mg/kg, po measured after 24 hrs; type: organism-based; conditions: in vivo, dose 60-100 mg/kg
# Plasma [18] = test: Anticoagulant activity in citrated human plasma assessed as prolongation of activated partial thromboplastin time incubated for 3 mins by aPTT reagent based automated coagulometric analysis; type: functional
# Prothrombin = Prothrombin (Homo sapiens, UniProt P00734); test: Inhibition of thrombin (unknown origin) using H-D-Phe-Pip-Arg-pNA.2HCl as substrate incubated for 30 mins followed by substrate addition and measured after 60 mins by microplate reader analysis
# Plasma [19] = test: Anticoagulant activity in citrated human plasma assessed as prolongation of activated partial thromboplastin time at 1 uM incubated for 3 mins by aPTT reagent based automated coagulometric analysis relative to control; type: functional; conditions: 0.05 h
# [20] = Selectivity index, ratio of IC50 for inhibition of trypsin (unknown origin) using Bz-Ile-Glu(gamma-OR)-Gly-Arg-pNA.HCl as substrate to IC50 for inhibition of human FXIa using p-Glu-Pro-Arg-pNA.HCl as substrate
# Sequence of Plasma kallikrein (P03952 20-390 limits assumed): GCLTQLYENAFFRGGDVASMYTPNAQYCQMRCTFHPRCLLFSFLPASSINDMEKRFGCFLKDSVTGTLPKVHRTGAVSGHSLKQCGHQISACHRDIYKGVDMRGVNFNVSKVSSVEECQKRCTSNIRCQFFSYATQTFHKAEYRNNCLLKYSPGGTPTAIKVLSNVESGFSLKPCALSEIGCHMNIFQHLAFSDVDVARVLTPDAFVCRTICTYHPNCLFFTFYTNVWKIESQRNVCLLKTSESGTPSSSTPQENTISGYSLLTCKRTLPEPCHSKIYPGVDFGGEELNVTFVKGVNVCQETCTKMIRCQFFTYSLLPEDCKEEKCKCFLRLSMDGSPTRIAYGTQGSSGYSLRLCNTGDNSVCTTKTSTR
# Sequence of Plasma kallikrein (P03952 391-638 limits assumed): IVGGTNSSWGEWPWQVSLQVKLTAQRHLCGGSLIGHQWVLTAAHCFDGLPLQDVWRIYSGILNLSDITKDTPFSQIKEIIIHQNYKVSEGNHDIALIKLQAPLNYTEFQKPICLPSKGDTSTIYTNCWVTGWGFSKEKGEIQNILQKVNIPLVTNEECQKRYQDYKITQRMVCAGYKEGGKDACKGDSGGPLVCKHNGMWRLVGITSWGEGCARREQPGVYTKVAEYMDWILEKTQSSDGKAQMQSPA
# Sequence of Coagulation factor XI (P03951 19-387 limits assumed): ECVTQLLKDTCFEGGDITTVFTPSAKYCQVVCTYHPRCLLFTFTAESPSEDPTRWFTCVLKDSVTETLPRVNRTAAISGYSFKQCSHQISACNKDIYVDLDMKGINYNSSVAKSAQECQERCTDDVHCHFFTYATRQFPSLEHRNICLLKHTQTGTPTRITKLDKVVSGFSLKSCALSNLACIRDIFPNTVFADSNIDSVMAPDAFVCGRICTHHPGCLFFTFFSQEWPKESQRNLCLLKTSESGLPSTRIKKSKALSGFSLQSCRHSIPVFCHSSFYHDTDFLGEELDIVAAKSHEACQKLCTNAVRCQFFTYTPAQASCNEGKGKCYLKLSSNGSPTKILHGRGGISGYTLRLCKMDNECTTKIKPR
# Sequence of Coagulation factor XI (P03951 388-625 limits assumed): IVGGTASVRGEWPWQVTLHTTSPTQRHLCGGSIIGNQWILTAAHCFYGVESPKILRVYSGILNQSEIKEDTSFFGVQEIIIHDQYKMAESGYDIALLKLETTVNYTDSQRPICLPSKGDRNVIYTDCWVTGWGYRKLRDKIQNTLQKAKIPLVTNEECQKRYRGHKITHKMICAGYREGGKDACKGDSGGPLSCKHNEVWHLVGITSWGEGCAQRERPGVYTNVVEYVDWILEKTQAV
# Sequence of Plasminogen (P00747 97-580 limits assumed): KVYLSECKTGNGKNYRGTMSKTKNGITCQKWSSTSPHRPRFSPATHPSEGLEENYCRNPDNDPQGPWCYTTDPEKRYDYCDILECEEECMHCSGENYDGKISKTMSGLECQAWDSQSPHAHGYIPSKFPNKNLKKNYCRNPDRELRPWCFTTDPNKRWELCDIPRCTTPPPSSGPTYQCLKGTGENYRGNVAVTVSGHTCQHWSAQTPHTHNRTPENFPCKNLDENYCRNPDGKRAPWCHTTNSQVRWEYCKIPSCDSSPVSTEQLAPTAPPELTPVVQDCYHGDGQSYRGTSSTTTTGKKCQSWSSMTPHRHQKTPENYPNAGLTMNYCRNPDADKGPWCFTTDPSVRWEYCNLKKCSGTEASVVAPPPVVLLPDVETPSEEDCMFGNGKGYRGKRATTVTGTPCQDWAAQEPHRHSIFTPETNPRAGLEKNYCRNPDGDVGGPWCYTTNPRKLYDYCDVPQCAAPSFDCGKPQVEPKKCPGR
# Sequence of Plasminogen (P00747 581-810 limits assumed): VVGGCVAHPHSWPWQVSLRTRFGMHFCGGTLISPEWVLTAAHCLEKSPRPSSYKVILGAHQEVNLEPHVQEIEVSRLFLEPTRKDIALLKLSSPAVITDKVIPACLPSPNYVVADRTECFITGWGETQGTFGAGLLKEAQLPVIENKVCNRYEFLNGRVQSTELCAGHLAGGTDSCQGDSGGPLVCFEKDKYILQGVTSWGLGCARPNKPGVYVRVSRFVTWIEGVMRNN
smiles,measurement,setting,value
COc1cn(Cc2cc(-c3ccc(N)nc3F)ccn2)c(=O)cc1-c1cc(Cl)ccc1-n1cnnn1,pIC50,Plasma kallikrein,6.65
same,pIC50,Coagulation factor XII,< 6.00
same,Activity,Mus musculus [1],Active; Pronounced Increase Observed Compared To Compound F
same,Activity,[2],Non-toxic
same,Activity,Plasma [3],inactive
same,Activity,[4],Non-toxic
same,pIC50,Coagulation factor XI,9.72
same,Activity,[5],Non-toxic
same,half-life,[6],> 3 h
same,Activity,Mus musculus [7],Dose-dependent-effect
same,Ratio IC50,[8],> 1000
same,Activity,[9],Non-toxic
same,Activity,[10],Non-toxic
same,Activity,[11],Non-toxic
same,Activity,[12],Non-toxic
same,Activity,Oryctolagus cuniculus,Active; Outperformed Asundexian Reducing Thrombus Weight
same,Activity,[13],Non-toxic
same,pIC50,Plasminogen,< 6.00
same,Activity,[14],Non-toxic
same,Activity,[15],Non-toxic
same,EC1.5,Plasma [16],1.6 µM
same,Activity,[17],Non-toxic
same,Activity,Plasma [18],Dose-dependent-effect
same,EC1.5,Plasma [18]; 0.05 h,0.43 µM
same,pIC50,Prothrombin,< 6.00
same,Activity,Plasma [19],247.3%
same,Ratio IC50,[20],> 1000
